Data on 4 substances can be found in US20250154525A1, “PLANT VIRUS MOVEMENT PROTEINS AND METHODS OF USING SAME” (Molecular Transfer, Inc., priority 2016, published 2025).

Common to all, as to experiment: GFP plasmid transfection with DOTMA/DOPE plus plant virus movement protein derived peptides (Example 2)
Format in all cases: cell-based

Assay [1] has as its system Human Primary Fibroblast Cells. To be noted: 42 hours. As to the method:
(§1) Cells were plated to so that on the day of transfection the cells were 70% confluent in 96 well tissue culture plates. A DOMTA/DOPE Lipid solution (1:1 molar ratio) at 2 mg/mL in water were mixed with an equal volume of plant virus movement protein derived peptides that had the nucleic acid binding moiety RRRRRRRRRRRR (SEQ ID NO:109) or KKKKKKKKKKKKKKKK (SEQ ID NO: 102) covalently linked to the N-terminus, or C-terminus of each peptide during peptide synthesis. Peptides were at 2 mg/mL in water. The DOTMA/DOPE and the plant virus movement peptide solution the was diluted 1 to 1 (v/v) in water. DOMTA/DOPE/PEPTIDE solutions were added to 0.1 mL of a plasmid DNA solution (EF1Alpha eGFP plasmid) at 10 μg/mL in OptiMEM.
(§2) All solutions were at room temperature. A volume of 0.2 mL of a 10 μg/mL solution of DNA was aliquoted into each well of a non-tissue cultured treated plate. 1-6 μL of transfection reagents were added to DNA solutions respectively. The transfection reagent and DNA solution was mixed by pipetting up and down twice. Transfection complexes were formed for 10 minutes. After 10 minutes, 0.01 or 0.02 mL of the transfection complex was added to cells. HuVEC, HeLa, human adult keratinocytes, human primary adult fibroblast, and A549 cells all respectively received 0.01 mL of the transfection complex. Human skeletal muscle cells, mouse C2C12 cells, and Jurkat, cells received 0.02 mL of the transfection complex. Cells were incubated for 42 hours at 37° C. at 5% CO2. Plates were read on a fluorescent plate reader. Cells were also examined visually under a microscope to assess the extent of transfection (in terms of the percent of cells transfected) with a fluorescent microscope. Other modes of analysis, for example quantification with B-galactosidase or luciferase reports plasmids can also be used.

Assay [2] deals with HuVec Cells. The settings on record: 42 hours. The method, then:
as §1, §2

In assay [3] the test system is HeLa Cells. To be noted: 1-6 μL of transfection reagents. As to the method:
as §1, §2

Where [4] appears, read: value column 1 of 6, head not given, 1 µL transfection reagent.
Setting [5] is: value column 3 of 6, head not given, 3 µL transfection reagent.
Where [6] appears, read: value column 4 of 6, head not given, 4 µL transfection reagent.

Regarding 109 (RRRRRRRRRRRR) [compound 109], the “Relative Fluorescence of Transfection of Human Primary Fibroblast Cells” value amounted to 28368 Rf in assay [1] (Transfection Agent 1 μl); 30373 Rf in assay [1] (Transfection Agent 1.5 μl); 29858 Rf in assay [1] (Transfection Agent 2 μl); 29895 Rf in assay [1] (Transfection Agent 3 μl); 30941 Rf in assay [1] (Transfection Agent 4 μl); 29386 Rf in assay [1] (Transfection Agent 6 μl). Also, the “Relative Fluorescence of Transfection of HuVEC Cells” value stood at 24603 Rf in assay [2] (Transfection Agent 1 μl); 25735 Rf in assay [2] (Transfection Agent 1.5 μl); 25421 Rf in assay [2] (Transfection Agent 2 μl); 26641 Rf in assay [2] (Transfection Agent 3 μl); 26529 Rf in assay [2] (Transfection Agent 4 μl); 25907 Rf in assay [2] (Transfection Agent 6 μl). Moreover, the “Relative Fluorescence of Transfection of Hela Cells” value was 5578 in assay [3] (2 µL transfection reagent); 8007 in assay [3] (5 µL transfection reagent); 4157 in assay [3] (setting [4]); 6606 in assay [3] (setting [5]); 8520 in assay [3] (setting [6]).

With “541 (RRRRRRRRRRRRGKWERKPIRCAS) [compound 541]”, the “Relative Fluorescence of Transfection of Human Primary Fibroblast Cells” value in assay [1] (Transfection Agent 1 μl) is 35030 Rf; in assay [1] (Transfection Agent 1.5 μl) it was 44894 Rf; in assay [1] (Transfection Agent 2 μl), 42097 Rf; in assay [1] (Transfection Agent 3 μl) it was 31837 Rf; in assay [1] (Transfection Agent 4 μl), 29537 Rf; in assay [1] (Transfection Agent 6 μl) it was 28921 Rf. Moreover, the “Relative Fluorescence of Transfection of HuVEC Cells” value is reported as 27405 Rf in assay [2] (Transfection Agent 1 μl); 46446 Rf in assay [2] (Transfection Agent 1.5 μl); “OVER” in assay [2] (Transfection Agent 2 μl); 40401 Rf in assay [2] (Transfection Agent 3 μl); 31568 Rf in assay [2] (Transfection Agent 4 μl); 28125 Rf in assay [2] (Transfection Agent 6 μl). Also, the “Relative Fluorescence of Transfection of Hela Cells” value in assay [3] (2 µL transfection reagent) was 36476; in assay [3] (5 µL transfection reagent) it was 20473; in assay [3] (setting [4]), 17145; in assay [3] (setting [5]), 37105; in assay [3] (setting [6]), 23644.

In the case of “545 (KSVPNRTRTYIKLKRLRFKGAPYKAWRRRRRRRRRRRR) [compound 545]”, the “Relative Fluorescence of Transfection of Human Primary Fibroblast Cells” value in assay [1] (Transfection Agent 1 μl) is 34309 Rf; in assay [1] (Transfection Agent 1.5 μl), 48184 Rf; in assay [1] (Transfection Agent 2 μl), 37497 Rf; in assay [1] (Transfection Agent 3 μl), 29067 Rf; in assay [1] (Transfection Agent 4 μl), 28928 Rf; in assay [1] (Transfection Agent 6 μl), 29256 Rf. Further, the “Relative Fluorescence of Transfection of HuVEC Cells” value was found to be 26545 Rf in assay [2] (Transfection Agent 1 μl); 36649 Rf in assay [2] (Transfection Agent 1.5 μl); 46890 Rf in assay [2] (Transfection Agent 2 μl); 34047 Rf in assay [2] (Transfection Agent 3 μl); 30893 Rf in assay [2] (Transfection Agent 4 μl); 27133 Rf in assay [2] (Transfection Agent 6 μl). For the same substance, the “Relative Fluorescence of Transfection of Hela Cells” value in assay [3] (2 µL transfection reagent) was 28529; in assay [3] (5 µL transfection reagent), 13009; in assay [3] (setting [4]), 11056; in assay [3] (setting [5]), 28943; in assay [3] (setting [6]), 14693.

Consider “543 (RRRRRRRRRRRRVDFSHVDYGKWERKPIRCASMSRLGLRG) [compound 543]”, for which the “Relative Fluorescence of Transfection of Human Primary Fibroblast Cells” value worked out at 30416 Rf in assay [1] (Transfection Agent 1 μl); 45401 Rf in assay [1] (Transfection Agent 1.5 μl); 39786 Rf in assay [1] (Transfection Agent 2 μl); 33091 Rf in assay [1] (Transfection Agent 3 μl); 28648 Rf in assay [1] (Transfection Agent 4 μl); 28698 Rf in assay [1] (Transfection Agent 6 μl). In addition, the “Relative Fluorescence of Transfection of HuVEC Cells” value in assay [2] (Transfection Agent 1 μl) came out at 26622 Rf; in assay [2] (Transfection Agent 1.5 μl) it was 36742 Rf; in assay [2] (Transfection Agent 2 μl), 42802 Rf; in assay [2] (Transfection Agent 3 μl) it was 40584 Rf; in assay [2] (Transfection Agent 4 μl) it was 32754 Rf; in assay [2] (Transfection Agent 6 μl), 25492 Rf. Also, the “Relative Fluorescence of Transfection of Hela Cells” value in assay [3] (2 µL transfection reagent) is 42502; in assay [3] (5 µL transfection reagent) it was 13793; in assay [3] (setting [4]), 12174; in assay [3] (setting [5]) it was 38779; in assay [3] (setting [6]), 28451.
